The test has as its target T1, androgen receptors (Homo sapiens, UniProt P10275).
T1 sequence (P10275 1-920): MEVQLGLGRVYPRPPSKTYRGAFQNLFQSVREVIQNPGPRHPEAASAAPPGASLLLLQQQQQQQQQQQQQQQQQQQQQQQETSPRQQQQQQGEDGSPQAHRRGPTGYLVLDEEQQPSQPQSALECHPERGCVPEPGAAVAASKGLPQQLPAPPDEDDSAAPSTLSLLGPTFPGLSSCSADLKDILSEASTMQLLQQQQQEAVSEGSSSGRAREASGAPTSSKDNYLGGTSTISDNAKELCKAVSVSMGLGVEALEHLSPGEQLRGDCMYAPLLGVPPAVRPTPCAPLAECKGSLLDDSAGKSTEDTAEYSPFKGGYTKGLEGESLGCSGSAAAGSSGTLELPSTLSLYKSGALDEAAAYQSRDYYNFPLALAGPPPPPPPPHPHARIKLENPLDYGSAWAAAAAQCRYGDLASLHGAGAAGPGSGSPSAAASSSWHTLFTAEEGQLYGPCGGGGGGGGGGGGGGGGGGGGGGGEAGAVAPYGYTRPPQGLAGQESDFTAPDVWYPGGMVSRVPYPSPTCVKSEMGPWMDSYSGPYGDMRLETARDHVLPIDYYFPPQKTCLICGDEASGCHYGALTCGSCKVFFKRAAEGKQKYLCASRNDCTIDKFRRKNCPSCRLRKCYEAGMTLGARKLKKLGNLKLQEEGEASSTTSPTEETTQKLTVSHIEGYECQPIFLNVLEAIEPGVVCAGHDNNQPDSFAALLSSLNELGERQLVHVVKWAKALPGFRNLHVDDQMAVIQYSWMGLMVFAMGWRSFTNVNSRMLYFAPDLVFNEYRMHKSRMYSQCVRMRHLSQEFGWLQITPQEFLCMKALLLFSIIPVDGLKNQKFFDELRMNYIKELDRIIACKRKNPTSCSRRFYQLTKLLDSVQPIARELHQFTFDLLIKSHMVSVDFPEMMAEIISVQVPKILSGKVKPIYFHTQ
In words: receptor binding affinities to the androgen receptors (RBA). Conditions: receptor binding affinity to the androgen receptors; R 1881 (Methyltrienolone) = 100.

From US20040024231A1, “17Alpha fluoroalkyl steroids, method for producing the same and pharmaceutical compositions containing said compounds” (priority 2000, published 2004) come the findings set out here.

Molecule `CC12CCC3C4CCC(=O)C(O)=C4CCC3C1CCC2(O)C(F)(F)C(F)(F)F` (stereo not drawn) [17β,4-Dihydroxy-17α-pentafluoroethyl-estr-4-en-3-one] gave an RBA of 20%. Turning to `CC12CCC3C4CCC(=O)C(O)=C4CCC3C1CCC2(O)C(F)(F)F` (stereo not drawn) [17β,4-Dihydroxy-17α-trifluoromethyl-estr-4-en-3-one], the RBA is given as 15%.

Regarding `CC12CCC(=O)C=C1CCC1C2C(O)CC2(C)C1CCC2(O)C(F)(F)F` (stereo not drawn) [17β,11β-Dihydroxy-17α-trifluoromethyl-androst-4-en-3-one], the RBA is 8.6%.

In the case of `CC12CCC3C4CCC(=O)C(Cl)=C4CCC3C1CCC2(O)C(F)(F)C(F)(F)F` (stereo not drawn) [17β-Hydroxy-17α-pentafluoroethyl-4-chloro-estr-4-en-3-one], the RBA was determined as 27%.

Regarding `CC1CC2=CC(=O)CCC2C2CCC3(C)C(CCC3(O)C(F)(F)C(F)(F)F)C12` (stereo not drawn) [17β-Hydroxy-17α-pentafluoroethyl-7α-methyl-estr-4-en-3-one], the RBA is recorded as 34%. For `CC12CCC3C4CCC(=O)C=C4CCC3C1CCC2(O)C(F)(F)C(F)(F)F` (stereo not drawn) [17β-Hydroxy-17α-pentafluoroethyl-estr-4-en-3-one], the RBA is 21%.

Regarding `CC12CCC(=O)C(Cl)=C1CCC1C2CCC2(C)C1CCC2(O)C(F)(F)F` (stereo not drawn) [17β-Hydroxy-17α-trifluoromethyl-4-chloro-androst-4-en-3-one], the RBA was 20%. Take `CC12CCC3C4CCC(=O)C(Cl)=C4CCC3C1CCC2(O)C(F)(F)F` (stereo not drawn) [17β-Hydroxy-17α-trifluoromethyl-4-chloro-estr-4-en-3-one]: the RBA is given as 41%. Molecule `CC1CC2=CC(=O)CCC2(C)C2CCC3(C)C(CCC3(O)C(F)(F)F)C12` (stereo not drawn) [17β-Hydroxy-17α-trifluoromethyl-7α-methyl-androst-4-en-3-one] had an RBA of 30%.

Turning to `CC1CC2=CC(=O)CCC2C2CCC3(C)C(CCC3(O)C(F)(F)F)C12` (stereo not drawn) [17β-Hydroxy-17α-trifluoromethyl-7α-methyl-estr-4-en-3-one], the RBA is 40%. Turning to `C[C@]12CCC(=O)C=C1CC[C@@H]1[C@@H]2CC[C@@]2(C)[C@H]1CC[C@@]2(O)C(F)(F)F` [17β-Hydroxy-17α-trifluoromethyl-androst-4-en-3-one], the RBA is 9.4%. The result for `C[C@]1(O)CC[C@H]2[C@@H]3CCC4=CC(=O)CCC4=C3C=C[C@@]21C` [R 1881 (Methyltrienolone), Methyltrienolone, reference compound] reads 100%.
